{"source": "patent US11077177B2", "about": "“Universal cancer vaccine” (priority 2016, dated 2021)", "key": {"CD 8+ T cell repertoire": {"test_system": "CD 8+ T cell repertoire", "experiment": "Tetramer staining of peripheral blood mononuclear cells by flow cytometry after immunization with an altered peptide (FIG. 3B)", "type": "cell-based"}, "[1]": {"test_system": "HLA molecule (types A1, A2, A3, A11, A24, B7 and B44)", "experiment": "HLA type bound by altered telomerase peptides (Table 1)", "type": "binding, human", "settings": "MHC class I HLA type bound by the peptide; no test method described; listed as SEQ ID NO: 13"}}}
{"sequence": "YLFFYRKSV (listed as Homo sapiens) [SEQ ID 13]", "values": [{"measurement": "expansion of CD 8+ T cell repertoire cross-reacting with the naturally occurring peptide", "setting": "CD 8+ T cell repertoire", "value": "this approach is feasible"}, {"measurement": "HLA TYPE BOUND", "setting": "[1]", "value": "HLA-A2"}]}
